Reference: patent US20060199211A1, “Fluorous-based microarrays” (priority 2005, published 2006)

Assays:
[1] = target: T1, lectin from Arachis hypogaea (peanut, FITC-PNA) (Arachis hypogaea, UniProt P02872); experiment: Fluorous carbohydrate microarray screened with FITC-labeled peanut lectin (fluorescence scan at 488 nm); assay type: binding; details: carbohydrates 4-11 spotted (2 mM in 80% methanol/water) on fluorinated glass slide; FITC-PNA in PBS buffer (0.5 M), 30 min
T1 construct: purchased EY Laboratories, San Mateo, Calif
T1 sequence (P02872 24-273): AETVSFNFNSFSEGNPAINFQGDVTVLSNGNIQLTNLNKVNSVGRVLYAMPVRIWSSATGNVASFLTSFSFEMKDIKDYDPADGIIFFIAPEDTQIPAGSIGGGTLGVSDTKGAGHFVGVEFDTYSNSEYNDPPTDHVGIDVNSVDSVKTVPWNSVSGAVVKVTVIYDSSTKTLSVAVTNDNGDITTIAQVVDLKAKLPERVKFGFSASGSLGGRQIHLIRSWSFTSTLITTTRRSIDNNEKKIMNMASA
Protocol: (§1) With the fluorous-tagged carbohydrates in hand, the ability of the single C8F17 tail to anchor these mono- and disaccharides to a glass slide surface even after repeated washes was examined. The fluorous-tagged carbohydrates 4-11 were dissolved in 80% methanol/water and were spotted onto fluoroalkylsilane-derivatized glass slides employing a standard robot used for DNA arraying. The slides then were incubated for 30 minutes with the commercially available FITC (fluorescein isothiocyanate)-labeled lectins from Triticum vulgaris (wheat germ, FITC-WGA) in phosphate buffered saline (PBS buffer) (0.25 M) and Arachis hypogaea (peanut, FITC-PNA) in PBS buffer (0.5 M) and rinsed repeatedly with the assay buffer followed by distilled water. After drying, the slide was scanned with a standard fluorescent slide scanner at 488 nm to reveal the carbohydrate-binding specificities of these two lectins. As expected the wheat germ lectin WGA bound only to the fluorous-tagged N-acetylglucosamine (5). In contrast, the peanut lectin PNA bound to both galactose (7) and lactose (10) in the array experiment. This lectin is known to bind to galactose both alone and in the context of the lactose disaccharide. […]

[2] = tested on: lectin from Triticum vulgaris (wheat germ, FITC-WGA); experiment: Fluorous carbohydrate microarray screened with FITC-labeled wheat germ lectin (fluorescence scan at 488 nm); assay type: binding; details: carbohydrates 4-11 spotted (2 mM in 80% methanol/water) on fluorinated glass slide; FITC-WGA in PBS buffer (0.25 M), 30 min; WGA bound only to this one
Protocol: as §1

| binding of wheat germ lectin WGA to arrayed fluorous-tagged carbohydrate [2] | Structure (SMILES) | binding of peanut lectin PNA to arrayed fluorous-tagged carbohydrate [1] |
| --- | --- | --- |
| – | OC[C@H]1O[C@@H](O[C@H]2[C@H](O)[C@@H](O)[C@H](OCCCCOCCCC(F)(F)C(F)(F)C(F)(F)C(F)(F)C(F)(F)C(F)(F)C(F)(F)C(F)(F)F)O[C@@H]2CO)[C@H](O)[C@@H](O)[C@H]1O [Compound 10] | bound |
| bound | CC(=O)N[C@H]1[C@H](OCCCCOCCCC(F)(F)C(F)(F)C(F)(F)C(F)(F)C(F)(F)C(F)(F)C(F)(F)C(F)(F)F)O[C@H](CO)[C@@H](O)[C@@H]1O [Compound 5, 3-(perfluorooctyl)propanyloxybutanyl-2-deoxy-2-acylamino-β-D-glucopyranoside] | – |
| – | OC[C@H]1O[C@@H](OCCCCOCCCC(F)(F)C(F)(F)C(F)(F)C(F)(F)C(F)(F)C(F)(F)C(F)(F)C(F)(F)F)[C@H](O)[C@@H](O)[C@H]1O [Compound 7] | bound |
